Results from US20140051679A1, “KINASE INHIBITORS AND METHOD OF TREATING CANCER WITH SAME” (UNIVERISTY HEALTH NETWORKS, priority 2011, published 2014).

What was measured:
HT29 colon cancer cells = test: Cell growth inhibition, Sulforhodamine B assay, HT29; assay type: cell-based; settings: Homo sapiens, HT-29, 120 h, 5 days culture, SRB assay, read-out: Cell Line GI50 Range HT29
[1] = tested on: PA-1 ovarian cancer cells; test: Cell growth inhibition, Sulforhodamine B assay, PA-1; assay type: cell-based; settings: 120 h, 5 days culture, SRB assay, read-out: Cell Line GI50 Range PA-1
human PLK4 = target: T1, human PLK4 (Homo sapiens, UniProt O00444); test: PLK4 inhibition assay (indirect ELISA); assay type: biochemical; settings: GST-PLK4 4 nM, 15 μM ATP; read-out: IC50 Ranges PLK4
T1 construct: amino terminal GST fusion of residues 1-391 of human PLK4; made in house; host or cells: E. coli
T1 sequence (O00444 1-391): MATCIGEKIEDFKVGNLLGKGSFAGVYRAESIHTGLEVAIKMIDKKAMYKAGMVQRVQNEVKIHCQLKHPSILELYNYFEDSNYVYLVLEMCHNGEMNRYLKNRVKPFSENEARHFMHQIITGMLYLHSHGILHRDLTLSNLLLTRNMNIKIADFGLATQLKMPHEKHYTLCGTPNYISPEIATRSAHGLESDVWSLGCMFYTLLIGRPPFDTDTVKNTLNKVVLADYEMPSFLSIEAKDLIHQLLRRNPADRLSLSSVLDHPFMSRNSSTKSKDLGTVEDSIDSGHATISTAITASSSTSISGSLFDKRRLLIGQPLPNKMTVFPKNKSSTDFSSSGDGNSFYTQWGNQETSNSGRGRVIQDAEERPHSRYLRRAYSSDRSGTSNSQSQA
Outline: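 Compounds were tested either at a single 10 μM dose or across 10-point titrations (typically 0.5 to 0.001 μM), preincubated 15 min with 4 nM GST-PLK4 (human 1-391, dephosphorylated) before 15 μM ATP was added. MBP substrate phosphorylation over 30 min, pH 7.5 HEPES/MgCl2 buffer, read by HRP/TMB ELISA (450 nm). % inhibition vs. high-activity control; IC50 by logistic fit.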

Aurora B = target: T2, Aurora B (Homo sapiens, UniProt Q96GD4); test: Aurora B inhibition assay (Z-Lyte); assay type: biochemical; settings: 28 nM Aurora B, 128 μM ATP; read-out: IC50 Ranges Aurora B
T2 construct: purchased Invitrogen PV3970
Description: Aurora B inhibition was determined using the Z-Lyte assay kit from Invitrogen. The assay was performed using the recommended manufacturer's instructions with 128 μM ATP and 28 nM Aurora B (Invitrogen cat #PV3970). The % inhibition values were determined according to the manufacturer's directions and IC50 values were obtained using a non-linear 4 point logistic curve fit (XLfit4, IDBS)

[2] = tested on: MDA-MB-231 breast cancer cells; test: Cell growth inhibition, Sulforhodamine B assay, MDA-MB-231; assay type: cell-based; settings: Homo sapiens, 120 h, 5 days culture, SRB assay, read-out: Cell Line GI50 Range MDA-MB-231
[3] = tested on: MDA-MB-468 breast cancer cells; test: Cell growth inhibition, Sulforhodamine B assay, MDA-MB-468; assay type: cell-based; settings: Homo sapiens, 120 h, 5 days culture, SRB assay, read-out: Cell Line GI50 Range MDA-MB-468
[4] = tested on: HCT116 colon cancer cells; test: Cell growth inhibition, Sulforhodamine B assay, HCT116; assay type: cell-based; settings: Homo sapiens, HCT-116, 120 h, 5 days culture, SRB assay, read-out: Cell Line GI50 Range HCT116
human TTK = target: T3, human TTK (Homo sapiens, UniProt P33981); test: TTK inhibition assay (indirect ELISA); assay type: biochemical; settings: GST-TTK 0.68 nM, 16 μM ATP; read-out: IC50 Ranges TTK
T3 construct: amino terminal GST fusion of full length human TTK; purchased Invitrogen
T3 sequence (P33981 1-857): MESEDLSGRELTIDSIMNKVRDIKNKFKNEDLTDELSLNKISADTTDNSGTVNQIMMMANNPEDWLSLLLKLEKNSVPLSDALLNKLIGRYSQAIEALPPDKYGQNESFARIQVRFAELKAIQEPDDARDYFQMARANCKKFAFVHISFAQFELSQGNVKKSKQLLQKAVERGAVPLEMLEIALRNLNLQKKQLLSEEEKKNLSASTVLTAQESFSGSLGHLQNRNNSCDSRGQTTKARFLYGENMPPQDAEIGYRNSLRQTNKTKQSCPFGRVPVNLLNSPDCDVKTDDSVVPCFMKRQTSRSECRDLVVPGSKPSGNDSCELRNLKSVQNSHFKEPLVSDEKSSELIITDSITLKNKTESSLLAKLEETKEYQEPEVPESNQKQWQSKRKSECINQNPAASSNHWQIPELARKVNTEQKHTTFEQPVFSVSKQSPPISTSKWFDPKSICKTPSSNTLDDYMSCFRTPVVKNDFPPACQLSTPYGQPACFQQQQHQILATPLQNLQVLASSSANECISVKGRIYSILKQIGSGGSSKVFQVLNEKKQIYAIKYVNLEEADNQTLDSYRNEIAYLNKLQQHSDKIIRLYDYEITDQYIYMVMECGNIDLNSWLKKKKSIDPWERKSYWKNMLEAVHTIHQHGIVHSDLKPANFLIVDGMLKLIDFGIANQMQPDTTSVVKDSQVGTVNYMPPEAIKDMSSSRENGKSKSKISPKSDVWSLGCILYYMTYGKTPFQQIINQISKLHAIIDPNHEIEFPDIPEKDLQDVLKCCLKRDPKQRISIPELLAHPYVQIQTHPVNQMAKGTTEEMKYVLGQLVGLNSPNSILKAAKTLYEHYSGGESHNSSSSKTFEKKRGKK

[5] = tested on: OVCAR-3 ovarian cancer cells; test: Cell growth inhibition, Sulforhodamine B assay, OVCAR-3; assay type: cell-based; settings: Homo sapiens, 120 h, 5 days culture, SRB assay, read-out: Cell Line GI50 Range OVCAR-3

T2 sequence (Q96GD4 whole entry): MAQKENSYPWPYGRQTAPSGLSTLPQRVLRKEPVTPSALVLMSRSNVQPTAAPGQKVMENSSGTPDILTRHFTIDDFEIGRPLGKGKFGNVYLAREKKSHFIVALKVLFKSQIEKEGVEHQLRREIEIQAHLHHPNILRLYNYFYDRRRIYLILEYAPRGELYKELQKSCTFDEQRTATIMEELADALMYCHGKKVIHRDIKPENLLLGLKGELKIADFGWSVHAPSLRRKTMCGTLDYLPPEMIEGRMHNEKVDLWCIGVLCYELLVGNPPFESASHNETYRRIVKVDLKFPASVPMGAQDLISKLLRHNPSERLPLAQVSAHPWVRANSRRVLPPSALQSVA

SMILES	GI50 (HT29 colon cancer cells) [µM]	GI50 [1] [µM]	IC50 (human PLK4) [µM]	IC50 (Aurora B) [µM]	GI50 [2] [µM]	GI50 [3] [µM]	GI50 [4] [µM]	IC50 (human TTK) [µM]	GI50 [5] [µM]
O=C(NC(c1ccsc1)C1CC1)c1ccc2[nH]nc(-c3ccc(OC4CCN(CCO)CC4)cc3)c2c1 (stereo not drawn) [Example A117, N-(cyclopropyl(thiophen-3-methyl-3-yl)methyl)-3-(4-((1-(2-hydroxyethyl)piperidin-4-yl)oxy)phenyl)-1H-indazole-5-carboxamide]	≤ 5	≤ 5	≤ 5	≤ 5		≤ 5	≤ 5	≤ 5	
CN1CCOc2ccc(-c3n[nH]c4ccc(NC(=O)C(c5ccsc5)N5CCCC5)cc34)cc2C1 (stereo not drawn) [Example A90, N-(3-(4-methyl-2,3,4,5-tetrahydrobenzo[f][1,4]oxazepin-7-yl)-1H-indazol-5-yl)-2-(pyrrolidin-1-yl)-2-(thiophen-3-yl)acetamide]	≤ 5	≤ 5	≤ 5	≤ 5	≤ 5	≤ 5	≤ 5	≤ 5	
O=C(NC(c1ccccc1)C1CC1)c1ccc2[nH]nc(-c3ccc(N4CCC(O)CC4)cc3)c2c1 (stereo not drawn) [Example A84, N-(cyclopropyl(phenyl)methyl)-3-(4-(4-hydroxypiperidin-1-yl)phenyl)-1H-indazole-5-carboxamide]	≤ 5	≤ 5	≤ 5	≤ 5		≤ 5	≤ 5	≤ 5	
COc1ccc(NC(=O)Nc2ccc3[nH]nc(-c4ccc(OC5CCN(C)CC5)cc4)c3c2)c(C)c1 [Example A81, 1-(4-methoxy-2-methylphenyl)-3-(3-(4-((1-methylpiperidin-4-yl)oxy)phenyl)-1H-indazol-5-yl)urea]	≤ 5	≤ 5	≤ 5	≤ 5	5 to 20	≤ 5	≤ 5	≤ 5	
CCc1cccc(CC)c1NC(=O)Nc1ccc2[nH]nc(-c3ccc(N4CCOCC4)cc3)c2c1 [Example A86, 1-(2,6-diethylphenyl)-3-(3-(4-morpholinophenyl)-1H-indazol-5-yl)urea]	≤ 5	≤ 5	≤ 5	≤ 5	≤ 5	≤ 5	≤ 5	≤ 5	
O=C(Nc1ccc2[nH]nc(-c3ccc(N4CCC(O)CC4)cc3)c2c1)C(c1ccsc1)N1CCCCC1 (stereo not drawn) [Example A83, N-(3-(4-(4-hydroxypiperidin-1-yl)phenyl)-1H-indazol-5-yl)-2-(piperidin-1-yl)-2-(thiophen-3-yl)acetamide]	≤ 5	≤ 5	≤ 5	≤ 5		≤ 5	≤ 5	≤ 5	
CN1CCC(Oc2ccc(-c3n[nH]c4ccc(C(=O)NC(c5ccsc5)C5CCC5)cc34)cc2)CC1 (stereo not drawn) [Example A121]	≤ 5	≤ 5	≤ 5	≤ 5		≤ 5	≤ 5	≤ 5	≤ 5

Continued, values first:

GI50 (HT29 colon cancer cells) [µM]	GI50 [1] [µM]	IC50 (human PLK4) [µM]	IC50 (Aurora B) [µM]	GI50 [2] [µM]	GI50 [3] [µM]	GI50 [4] [µM]	IC50 (human TTK) [µM]	GI50 [5] [µM]	SMILES
≤ 5	≤ 5	≤ 5	≤ 5	≤ 5	≤ 5	≤ 5	≤ 5		CN1CCC(C(NC(=O)c2ccc3[nH]nc(-c4ccc(N5CCOCC5)cc4)c3c2)c2ccccc2)CC1 (stereo not drawn) [Example A85, N-((1-methylpiperidin-4-yl)(phenyl)methyl)-3-(4-morpholinophenyl)-1H-indazole-5-carboxamide]
≤ 5	≤ 5	≤ 5	≤ 5	≤ 5	≤ 5	≤ 5	≤ 5		COC1CCN(c2ccc(-c3n[nH]c4ccc(NC(=O)C(c5ccsc5)N5CCCC5)cc34)cc2)CC1 (stereo not drawn) [Example A116, N-(3-(4-(4-methoxypiperidin-1-yl)phenyl)-1H-indazol-5-yl)-2-(pyrrolidin-1-yl)-2-(thiophen-3-yl)acetamide]
≤ 5	≤ 5	≤ 5	≤ 5		≤ 5	≤ 5	≤ 5	5 to 20	O=C(Nc1ccc2[nH]nc(-c3ccc(OC4CCN(CCF)CC4)cc3)c2c1)C(c1ccsc1)N1CCCC1 (stereo not drawn) [Example A102, N-(3-(4-((1-(2-fluoroethyl)piperidin-4-yl)oxy)phenyl)-1H-indazol-5-yl)-2-(pyrrolidin-1-yl)-2-(thiophen-3-yl)acetamide]
≤ 5	≤ 5	≤ 5	≤ 5	≤ 5	≤ 5	≤ 5	≤ 5		O=C(NC(c1ccccc1)C1CCC1)c1ccc2[nH]nc(-c3ccc(N4CCC(O)CC4)cc3)c2c1 (stereo not drawn) [Example A100, N-(cyclobutyl(phenyl)methyl)-3-(4-(4-hydroxypiperidin-1-yl)phenyl)-1H-indazole-5-carboxamide]
≤ 5	≤ 5	≤ 5	≤ 5	5 to 20	≤ 5	≤ 5	≤ 5		COCCN1CCC(Oc2ccc(-c3n[nH]c4ccc(NC(=O)[C@H](OC)c5ccccc5)cc34)cc2)CC1 [Example A107, (R)-2-methoxy-N-(3-(4-((1-(2-methoxyethyl)piperidin-4-yl)oxy)phenyl)-1H-indazol-5-yl)-2-phenylacetamide]
≤ 5	≤ 5	≤ 5	≤ 5	≤ 5	≤ 5	≤ 5	≤ 5		O=C(Nc1ccc2[nH]nc(-c3ccc(N4CCC(O)CC4)cc3)c2c1)C(c1ccccc1)C1CC1 (stereo not drawn) [Example A103, 2-cyclopropyl-N-(3-(4-(4-hydroxypiperidin-1-yl)phenyl)-1H-indazol-5-yl)-2-phenylacetamide]
	≤ 5	≤ 5	≤ 5		≤ 5	≤ 5	≤ 5	≤ 5	CC[C@@H](NC(=O)c1ccc2[nH]nc(-c3ccc(OC4CCN(C5COC5)CC4)cc3)c2c1)c1ccccc1Cl [Example A192, (R)—N-(1-(2-chlorophenyl)propyl)-3-(4-((1-(oxetan-3-yl)piperidin-4-yl)oxy)phenyl)-1H-indazole-5-carboxamide]
